Results: BindingDB's records for doi:10.1021/jm00166a002 (Berlex Laboratories, 1990)

Biological target: Beta-1 adrenergic receptor (Canis familiaris)
Test: In vitro Beta-1 adrenergic receptor affinity in partially purified membrane fractions from canine cardiac tissue using […] (4.5 nM)

IC50 [µM]	Structure (SMILES)
18	Cc1nccn1-c1ccc(OCCNCC(O)COc2ccc(N(C)S(C)(=O)=O)cc2)cc1 (configuration not stated)
21	CN(c1ccc(OCC(O)CNCCOc2ccc(-n3ccnc3)cc2)cc1)S(C)(=O)=O (configuration not stated)
